Converted amounts (≈) assume the structure as drawn. Like-named read-outs stand apart in the source and are kept apart here.
Columns and labels:
Test in all cases: microbe, parasite or virus in culture
E. coli = conditions: Escherichia coli
Procedure, shortened: (§1)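 Broth microdilution in MHB, 2-fold 12-point series from 128 or 64 down to 0.06 or 0.03 μg mL^−1, 5 × 10^5 CFU mL^−1. Extra runs in CAMHB per CLSI and in MHB with 1% agarose; n ≥ 6.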

K. pneumoniae = conditions: Klebsiella pneumoniae, mode of 6 replicates
Procedure, shortened: as §1

S. enterica Typhi = conditions: Salmonella enterica, ATCC14028 / TYPHI, read-out: BMD MIC
Procedure, shortened: as §1

A. baumannii = conditions: Acinetobacter baumannii, mode of 6 replicates
Procedure, shortened: as §1

S. aureus = conditions: Staphylococcus aureus, ATCC25923 / MSSA, read-out: BMD MIC
Procedure, shortened: as §1

P. aeruginosa = conditions: Pseudomonas aeruginosa, mode of 6 replicates
Procedure, shortened: as §1

[1] = test system: A. baumannii clinical isolates
Procedure, shortened: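 MIC90 from CLSI broth microdilution (M07-A9) in two clinical-isolate panels. US panel (331 isolates, 2010-2012): AA139 diluted in 0.01% acetic acid/0.1% BSA. Worldwide panel (445 isolates, 2011-2013, four regions): CAMHB, with 0.002% Tween 80 added for AA139 and polymyxin B.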

[2] = Worldwide isolates 2011-2013, A. baumannii n = 108

`CNC(C)C1CCC(N)C(OC2C(N)CC(N)C(OC3OCC(C)(O)C(NC)C3O)C2O)O1` (stereo not shown) [Gentamicin, gentamicin, reference compound] was tested, and the MIC (E. coli; ATCC25922, read-out: BMD MIC, E. coli ATCC 25922 FDA control strain, CAMHB, mode of 6 replicates) was at most 0.25 µg/mL, the MIC (E. coli; ATCC25922, read-out: BMD MIC, E. coli ATCC 25922 FDA control strain, MHB, mode of 6 independent biological replicates) was 1 µg/mL (≈ 2.09 µM) and the MIC (E. coli; ATCC700926|MG1655, read-out: BMD MIC, E. coli ATCC 700926 K12 (MG1655), CAMHB, mode of 6 replicates) was 0.5 µg/mL (≈ 1.05 µM). It also gave an MIC (E. coli; ATCC700928, read-out: BMD MIC, E. coli ATCC 700928 CFT073 UPEC, CAMHB, mode of 6 replicates) of 0.5 µg/mL (≈ 1.05 µM), an MIC (E. coli; read-out: BMD MIC, E. coli CI 12-6-83 Hong Kong, mcr-1 pos, ESBL, CAMHB, mode of 6 replicates) of 0.5 µg/mL (≈ 1.05 µM) and an MIC (K. pneumoniae; ATCC13883, read-out: BMD MIC, K. pneumoniae ATCC 13883 type strain (polymyxin/colistin heteroresistant), MHB) of 0.5 µg/mL (≈ 1.05 µM). It also gave an MIC (K. pneumoniae; ATCC700603, read-out: BMD MIC, K. pneumoniae ATCC 700603 (K6), MDR, OXA-2/SHV-18, CAMHB) of 4 µg/mL (≈ 8.38 µM), an MIC (K. pneumoniae; ATCC700603, read-out: BMD MIC, K. pneumoniae ATCC 700603 (K6), MDR, OXA-2/SHV-18, MHB) of 4 µg/mL (≈ 8.38 µM) and an MIC (K. pneumoniae; BAA2146, read-out: BMD MIC, K. pneumoniae BAA-2146, MDR, ESBL, NDM-1 pos, MHB) of over 32 µg/mL. The MIC (S. enterica Typhi) was 1 µg/mL (≈ 2.09 µM), the MIC (A. baumannii; ATCC19636, read-out: BMD MIC, A. baumannii ATCC 19636 type strain, CAMHB) was 16 µg/mL (≈ 33.5 µM) and the MIC (A. baumannii; ATCC19636, read-out: BMD MIC, A. baumannii ATCC 19636 type strain, MHB) was 32 µg/mL (≈ 67 µM). The MIC (A. baumannii; read-out: BMD MIC, A. baumannii Greece CI, XDR, PmxR, MHB) was over 32 µg/mL, the MIC (S. aureus) was 4 µg/mL (≈ 8.38 µM) and the MIC (P. aeruginosa; ATCC27853, read-out: BMD MIC, P. aeruginosa ATCC 27853 control strain, CAMHB) was 1 µg/mL (≈ 2.09 µM). The MIC (P. aeruginosa; ATCC27853, read-out: BMD MIC, P. aeruginosa ATCC 27853 control strain, MHB) was 1 µg/mL (≈ 2.09 µM), the MIC (P. aeruginosa; read-out: BMD MIC, P. aeruginosa FADDI-070, MDR, PmxR, MHB/CAMHB) was 32 µg/mL (≈ 67 µM) and the MIC90 ([1]; Acinetobacter baumannii) was over 32 µg/mL. For the same molecule, the MIC90 ([1]; US isolates 2010–2012, A. baumannii MDR, n = 19) was over 32 µg/mL, the MIC90 ([1]; US isolates 2010–2012, A. baumannii XDR, n = 31) was over 32 µg/mL and the MIC50 [1, 2] was over 32 µg/mL. The MIC90 [1, 2] was over 32 µg/mL.

Source: publication PMC7311426, “An amphipathic peptide with antibiotic activity against multidrug-resistant Gram-negative bacteria” (Nature Communications, 2020)
